Values of other authors in patent US20250122197A1, “PROCESS FOR […] ISOLATING ATROPISOMERS OF 7-CHLORO-6-FLUORO-1-(2-ISOPROPYL-4-METHYLPYRIDIN-3-YL)PYRIDO[2,3-D]PYRIMIDINE-2,4(1H,3H)-DIONE” (AMGEN INC., priority 2020, published 2025).

Key:
[1] = test system: phosphorylation of extracellular signal-regulated kinase (ERK); details: preclinical studies, Canon et al. Nature 2019
KRAS p.G12C tumors = details: mice bearing KRAS p.G12C tumors, Canon et al. Nature 2019

Q: Which “Inhibition of ERK phosphorylation” value [1] does the source give for `C=CC(=O)N1CCN(c2nc(=O)n(-c3c(C)ccnc3C(C)C)c3nc(-c4c(O)cccc4F)c(F)cc23)[C@@H](C)C1` [AMG 510] here?
A: inhibited nearly all detectable phosphorylation

Q: And the Tumor regression (KRAS p.G12C tumors)?
A: durable complete tumor regression
